Reference: patent publication US7404962B1, “Combination kit used in the treatment of malaria” (Nicholas Piramal India Limited, priority 2000, dated 2008)
Like-named read-outs stand apart in the source and are kept apart here.

Assays:
[1] = Methemoglobin toxicity study in healthy human volunteers; type: in vivo
Protocol: 3-[1-[[4-[(6-methoxy-8-quinolinyl)amino]pentyl]amino]ethylidene]-dihydro-2(3H)furanone (I) was evaluated vis-à-vis primaquine for toxicity related to methemoglobin formation in human.
The methemoglobin toxicity of compound I was evaluated via-à-vis that of primaquine in normal human volunteers.

[2] = test system: anti-oxidant defense enzymes; settings: literature; cited from earlier work
P. cynomolgi = experiment: Radical curative activity against P. cynomolgi in rhesus monkeys; type: in vivo
Protocol: The radical curative anti-malarial activity and toxicity of the compound I was evaluated and compared with that caused by primaquine.
Combination regimen of chloroquine and 3-[1-[[4-[(6-methoxy-8-quinolinyl)amino]pentyl]amino]ethylidene]-dihydro-2(3H)furanone(I) tested against P. cynomolgi in rhesus monkeys.
The therapeutic effect of the combination regimen consisting of chloroquine and 3-[1-[[4-[(6-methoxy-8-quinolinyl)amino]pentyl]amino]-ethylidene]-4,5-dihydro-2(3H)furanone (I) was tested against P. cynomolgi in rhesus monkeys. 3-[1-[[4-[(6-methoxy-8-quinolinyl)-amino]pentyl]amino]ethylidene]-dihydro-2(3H)furanone(I) was administered in the dose level of 4.00 mg/kg (to 3 monkeys), 3.00 mg/kg (to 3 monkeys), 2.50 mg/kg (to 4 monkeys), 2.00 mg/kg (to 3 monkeys) and 1.25 mg/kg (to 9 monkeys) for 7 days. Chloroquine was administered as a companion drug at 5 mg/kg (base) dose. Minimum curative dose of compound I was found 1.25 mg/kg in 9 monkeys.

[3] = literature, cited from earlier work
[4] = literature; cited from earlier work
P. vivax = experiment: Clinical evaluation of the combination kit in patients, one year surveillance study; type: in vivo, human; settings: compound I 25 mg vs primaquine 15 mg, each with chloroquine
Protocol: The efficacy of the combination kit of the present invention, containing compound I (25 mg) was clinically evaluated and compared with primaquine (15 mg) used in combination with chloroquine in a group of patients over a one year surveillance study.

Row | Structure (SMILES) | methemoglobin level after dosing ([1]; healthy human volunteers, 15 mg daily for 7 days) [%] | methemoglobin level before dosing ([1]; healthy human volunteers, starting level) [%] | methemoglobin level before dosing ([1]; human, in vivo) [%] | effect on anti-oxidant defense enzymes versus primaquine [2] | curative effect at doses higher than 1.25 mg/kg (P. cynomolgi; 2.0, 2.50, 3.00 and 4.00 mg/kg (base) for 7 days, chloroquine 5 mg/kg (base)) | Minimum curative dose (P. cynomolgi; 9 rhesus monkeys, 7 days, chloroquine companion drug at 5 mg/kg (base)) [mg/kg] | blood smears after stopping the treatment (P. cynomolgi; all monkeys observed over a period of 100 days) | curative (P. cynomolgi; rhesus monkeys, 7 days, dose range 1.25 mg/kb to 4 mg/kg) [%] | relapse after stopping the treatment (P. cynomolgi; rhesus monkeys, up to 100 days after stopping the treatment) | anti-relapse activity versus primaquine [3] | anti-relapse activity versus primaquine ([3]; listed as compound of formula (I)) | methemoglobin formation / toxicity versus primaquine [4] | toxicity versus primaquine [4] | radical curative activity versus primaquine (P. vivax)
1 | COc1cc(NC(C)CCCN)c2ncccc2c1 (stereo not shown) [primaquine, reference compound] | 16.23 | 3.97 | – | – | – | – | – | – | – | – | – | – | – | –
2 | COc1cc(NC(C)CCCN/C(C)=C2/CCOC2=O)c2ncccc2c1 (stereo not shown) [compound I, 3-[1-[[4-[(6-methoxy-8-quinolinyl)amino]pentyl]amino]ethylidene]-dihydro-2(3H)-furanone] | – | – | 2.29 | less effect on anti-oxidant defense enzymes than primaquine | curative | 1.25 | remained negative | 100 | no relapse observed | comparable to Primaquine | comparable to primaquine | less methemoglobin formation | safer and less toxic | as effective as primaquine
3 | COc1cc(C)c2c(Oc3cccc(C(F)(F)F)c3)c(OC)cc(NC(C)CCCN)c2n1 (stereo not shown) [tafenoquine, reference compound] | – | – | – | – | – | – | – | – | – | more effective than primaquine | – | almost three times more than that of primaquine | – | –
